Laboratory results reported in ChEMBL document CHEMBL1201862, “PubChem BioAssay data set” (2004).
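Each compound was tested at five concentrations against cells in 96-well plates for 48 hours. GI50 marks 50% less growth.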 Calls of active or inactive are those of the source. No stated cut-off is given here; in the data, active = GI50 up to about 1.1 µM and inactive = higher.

What was measured:
Assay in all cases: inhibition of tumour cell growth, NCI panel, 48 h
CAKI-1 = tested on: CAKI-1
EKVX = tested on: EKVX
HOP-62 = tested on: HOP-62
HT-29 = tested on: HT-29
LOX IMVI = tested on: LOX IMVI
M14 = tested on: M14
MCF7 = tested on: MCF7
MDA-MB-231 = tested on: MDA-MB-231
NCI-H23 = tested on: NCI-H23
NCI-H460 = tested on: NCI-H460
OVCAR-4 = tested on: OVCAR-4
PC-3 = tested on: PC-3
SN12C = tested on: SN12C
SR = tested on: SR
T47D = tested on: T47D
TK-10 = tested on: TK-10
U-251 = tested on: U-251
UACC-257 = tested on: UACC-257
UACC-62 = tested on: UACC-62
HOP-92 = tested on: HOP-92

SMILES: CC(C)c1ccc2c(c1)/C(=C1/Nc3ccccc3/C1=N/O)C(=O)N2
- GI50 (CAKI-1): 4.29 µM (inactive)
- GI50 (EKVX): 4.51 µM (inactive)
- GI50 (HOP-62): 10.7 µM (inactive)
- GI50 (HT-29): 4.69 µM (inactive)
- GI50 (LOX IMVI): 5.07 µM (inactive)
- GI50 (M14): 11.5 µM (inactive)
- GI50 (MCF7): 1.69 µM (inactive)
- GI50 (MDA-MB-231): 15.3 µM (inactive)
- GI50 (NCI-H23): 3.93 µM (inactive)
- GI50 (NCI-H460): 4 µM (inactive)
- GI50 (OVCAR-4): 4.32 µM (inactive)
- GI50 (PC-3): 6.64 µM (inactive)
- GI50 (SN12C): 5.22 µM (inactive)
- GI50 (SR): 2.61 µM (inactive)
- GI50 (T47D): 3.88 µM (inactive)
- GI50 (TK-10): 9.4 µM (inactive)
- GI50 (U-251): 7.23 µM (inactive)
- GI50 (UACC-257): 12.1 µM (inactive)
- GI50 (UACC-62): 8.57 µM (inactive)

SMILES: CC(=O)c1c(C)[n+]([O-])c2cc(Cl)c(Cl)cc2[n+]1[O-]
- GI50 (CAKI-1): 18.7 µM (inactive)
- GI50 (EKVX): 28.6 µM (inactive)
- GI50 (HOP-62): 23.1 µM (inactive)
- GI50 (HT-29): 18.5 µM (inactive)
- GI50 (LOX IMVI): 16.8 µM (inactive)
- GI50 (M14): 24.6 µM (inactive)
- GI50 (MCF7): 14.8 µM (inactive)
- GI50 (MDA-MB-231): 22.1 µM (inactive)
- GI50 (NCI-H23): 26.4 µM (inactive)
- GI50 (NCI-H460): 12 µM (inactive)
- GI50 (OVCAR-4): 15.6 µM (inactive)
- GI50 (PC-3): 17.7 µM (inactive)
- GI50 (SN12C): 20.2 µM (inactive)
- GI50 (SR): 6.75 µM (inactive)
- GI50 (T47D): 12.7 µM (inactive)
- GI50 (TK-10): 16.9 µM (inactive)
- GI50 (U-251): 21.8 µM (inactive)
- GI50 (UACC-257): 17.6 µM (inactive)
- GI50 (UACC-62): 18.4 µM (inactive)

SMILES: OB1OCc2ccccc21 [BENZOXABOROLE]
- GI50 (CAKI-1): 34.7 µM (inactive)
- GI50 (HOP-62): 26.7 µM (inactive)
- GI50 (HT-29): 26.7 µM (inactive)
- GI50 (LOX IMVI): 39 µM (inactive)
- GI50 (M14): 55.3 µM (inactive)
- GI50 (MCF7): 24.9 µM (inactive)
- GI50 (MDA-MB-231): 77.1 µM (inactive)
- GI50 (NCI-H23): 36.7 µM (inactive)
- GI50 (NCI-H460): 34.7 µM (inactive)
- GI50 (OVCAR-4): 32.4 µM (inactive)
- GI50 (PC-3): 20 µM (inactive)
- GI50 (SN12C): 39.7 µM (inactive)
- GI50 (SR): 52.7 µM (inactive)
- GI50 (T47D): > 100 µM (inactive)
- GI50 (TK-10): 38.9 µM (inactive)
- GI50 (U-251): 62.7 µM (inactive)
- GI50 (UACC-257): 28.6 µM (inactive)
- GI50 (UACC-62): 35.9 µM (inactive)

SMILES: Clc1ccc(CCN(CCc2ccc(Cl)c(Cl)c2)CCN2CCCC2)cc1Cl
- GI50 (CAKI-1): 1.64 µM (inactive)
- GI50 (EKVX): 2.05 µM (inactive)
- GI50 (HOP-62): 1.67 µM (inactive)
- GI50 (HT-29): 1.68 µM (inactive)
- GI50 (LOX IMVI): 1.6 µM (inactive)
- GI50 (M14): 1.67 µM (inactive)
- GI50 (MCF7): 1.51 µM (inactive)
- GI50 (MDA-MB-231): 1.56 µM (inactive)
- GI50 (NCI-H23): 1.82 µM (inactive)
- GI50 (NCI-H460): 1.86 µM (inactive)
- GI50 (OVCAR-4): 1.85 µM (inactive)
- GI50 (PC-3): 1.57 µM (inactive)
- GI50 (SN12C): 1.87 µM (inactive)
- GI50 (SR): 2.01 µM (inactive)
- GI50 (T47D): 3.27 µM (inactive)
- GI50 (TK-10): 1.78 µM (inactive)
- GI50 (U-251): 1.6 µM (inactive)
- GI50 (UACC-257): 1.78 µM (inactive)
- GI50 (UACC-62): 1.63 µM (inactive)

SMILES: COc1ccc(-c2oc3cc(OC)c(OC)c(OC)c3c(=O)c2OC)cc1OC [HEXAMETHOXYFLAVONE]
- GI50 (CAKI-1): > 100 µM (inactive)
- GI50 (EKVX): > 100 µM (inactive)
- GI50 (HOP-62): > 100 µM (inactive)
- GI50 (HOP-92): 16.4 µM (inactive)
- GI50 (HT-29): > 100 µM (inactive)
- GI50 (LOX IMVI): > 100 µM (inactive)
- GI50 (M14): > 100 µM (inactive)
- GI50 (MCF7): > 100 µM (inactive)
- GI50 (MDA-MB-231): > 100 µM (inactive)
- GI50 (NCI-H23): > 100 µM (inactive)
- GI50 (NCI-H460): > 100 µM (inactive)
- GI50 (OVCAR-4): > 100 µM (inactive)
- GI50 (PC-3): > 100 µM (inactive)
- GI50 (SN12C): > 100 µM (inactive)
- GI50 (T47D): 79.6 µM (inactive)
- GI50 (TK-10): > 100 µM (inactive)
- GI50 (U-251): > 100 µM (inactive)
- GI50 (UACC-257): > 100 µM (inactive)
- GI50 (UACC-62): > 100 µM (inactive)

SMILES: Cc1cccc2c(N)c3cccc(C(=O)NCC[N+](C)(C)[O-])c3nc12
- GI50 (CAKI-1): 3.42 µM (inactive)
- GI50 (EKVX): 15.6 µM (inactive)
- GI50 (HOP-62): 3.61 µM (inactive)
- GI50 (HOP-92): 10.5 µM (inactive)
- GI50 (HT-29): 6.01 µM (inactive)
- GI50 (LOX IMVI): 10.4 µM (inactive)
- GI50 (M14): 19.2 µM (inactive)
- GI50 (MCF7): 2.1 µM (inactive)
- GI50 (MDA-MB-231): 20.4 µM (inactive)
- GI50 (NCI-H23): 3.76 µM (inactive)
- GI50 (NCI-H460): 0.538 µM (active)
- GI50 (OVCAR-4): 10.3 µM (inactive)
- GI50 (PC-3): 13.5 µM (inactive)
- GI50 (SN12C): 3.64 µM (inactive)
- GI50 (T47D): 13.8 µM (inactive)
- GI50 (TK-10): 21.8 µM (inactive)
- GI50 (U-251): 4 µM (inactive)
- GI50 (UACC-257): 20.6 µM (inactive)
- GI50 (UACC-62): 8.99 µM (inactive)
